Row | melting point | Compound
1 | 84 to 85 °C | CC(C)[C@H](NC(=O)N(C)Cc1ccccn1)C(=O)N[C@@H](Cc1ccccc1)[C@@H](O)[C@@H](O)[C@H](Cc1ccccc1)NC(=O)OCc1cccnc1
2 | 153 to 156 °C | NC(=O)N(O)CCNC(=O)c1cccc(Oc2ccc(Cl)c(Cl)c2)c1
3 | 88 to 89 °C | CCCN(CCC)C(=O)COc1nc(-c2ccccc2)nc(C)c1C
4 | 152 to 153 °C | Cc1cc(C)cc(COC(=O)C(Cc2c[nH]c3ccccc23)NC(=O)OC(C)(C)C)c1 (stereo unspecified)
5 | 199 to 204 °C | CON1CCC2(CC1)OC(=O)C(c1cc(C)c(C)cc1C)=C2O
6 | 71 to 72 °C | COC(=O)CCc1oc(Cl)nc1-c1ccc(Cl)cc1
7 | 120 to 122 °C | CC1CN(C(=O)NC(CS)Cc2ccccc2)CC(C)O1 (single isomer, unassigned; (+))
8 | 128 to 129 °C | COc1cc(C=O)ccc1OCc1nc(-c2ccccc2)cn1C
9 | 76 to 81 °C | CC(C)(C)c1ccc(SN2CCOC2=O)cc1
10 | 200 to 204 °C | CC(=O)Nc1ccc(Sc2c(NCC3CC3)cc(C(=O)O)cc2S(N)(=O)=O)cc1
11 | 196 to 200 °C | Cc1c(F)cc(C(=O)O)cc1-c1ccc(C(=O)NCC(C)(C)C)cc1C(=O)Nc1nccs1
12 | 62 to 67 °C | Cc1cc(F)ccc1-c1ccc(S(=O)(=O)N2c3ccccc3CC2C(=O)O)cc1 (stereo unspecified)
13 | 105 to 107 °C | Cc1cc(Cc2cnc(NCCSCc3ncccc3Br)[nH]c2=O)cnc1C
14 | 188 to 189 °C | CCCNC(=O)CCn1c(C)nc2c(N)nc3ccccc3c21
15 | 176 °C | COc1c(C)cc(P(c2cc(C)c(OC)c(C)c2)c2cc(C)c(OC)c(C)c2)cc1C
16 | 100 to 108 °C | CC(=O)c1cnc(-c2ccccc2)nc1-c1ccccc1
17 | 128 to 136 °C | Cc1cc(-c2ccccc2C#N)ccc1[N+](=O)[O-]
18 | 88 to 90 °C | CC(C)Oc1ccc(S(=O)(=O)N2CCCC2=O)cc1
19 | 175 to 177 °C | CNc1nc(-c2cccc(NC(=O)Cc3ccccc3)c2)c2cc(OC)c(OC)cc2n1
20 | 75 to 78 °C | OC(CCCl)COc1ccc(Br)cc1 (stereo unspecified)
21 | 259 to 261 °C | CNC(=O)C1CCCc2c1c1cc(OC)ccc1n2Cc1ccccc1 (stereo unspecified)
22 | 173 to 175 °C | Cc1ccc(C(=O)Nc2ccc(N3CCN(C(=O)OC(C)(C)C)CC3)cc2)c(-c2ccc(C(C)C)cc2)c1

Row | melting point | Compound
23 | 172 to 174 °C | c1ccc2cc(CCNc3ncnc4ccccc34)ccc2c1
24 | 130 °C | Cc1ccc(Oc2ccc(-c3ccc(Cl)cc3)cc2)cc1
25 | 221 to 223 °C | O=C(O)[C@@H]1CCCN1C(=O)c1cc2cc3c(cc2c2cc(OCc4ccccc4)ccc12)OCO3
26 | 230 to 232 °C | Cc1cc(C)c(Nc2nc(C)ncc2S(=O)(=O)c2ccc(-n3ccnc3)cc2)c(C)c1
27 | 225 to 228 °C | N#Cc1cnc2cc(-c3ccc(CO)cc3)sc2c1Nc1ccc(Oc2ccccc2)cc1
28 | 90 to 93 °C | O=C(Nc1ccccc1)c1cccc(-c2ccc(OCC(O)CCc3cccnc3)cc2)c1 (stereo unspecified)
29 | 224 to 226 °C | CCCc1nc2ccccc2n1Cc1ccc(C2=C(C(=O)O)CCC2)cc1
30 | 96 to 98 °C | O=C(NC1CCN(C(=O)CCCC2(C(=O)NCC(F)(F)F)c3ccccc3-c3ccccc32)CC1)c1ccccc1Oc1ccccc1
31 | 221 to 222 °C | O=c1c2cc(F)c(N3CCCC3)nc2n(-c2ccccc2F)c(=O)n1OCc1ccccc1
32 | 81 to 82 °C | CCOC(=O)c1ccc(-c2nc(-c3ccccc3)ccc2Cl)cc1
33 | 146 to 149 °C | NC(=O)C1CCN(C(=O)CNC(=O)OCc2ccccc2)CC1
34 | 104 to 106 °C | O=S(=O)(c1cc(-c2ccc(F)cc2)c(-c2ccc(F)cc2)s1)C(F)(F)F
35 | 152 °C | Cc1c(CC(=O)O)cccc1C(=O)c1ccc(Cl)cc1
36 | 210 °C | O=c1[nH]cccc1CCCCCCCCCCCCc1ccc[nH]c1=O
37 | 188 to 189 °C | Cc1nc2cccc(S(=O)(=O)n3c(CCC(=O)O)cc4cc(Cl)ccc43)c2s1
38 | 127 °C | O=C(c1ccccc1)N1CCc2cc(S(=O)(=O)N3CC(c4ccccc4)NC3=O)ccc21 (stereo unspecified)
39 | 238 °C | CC(C)c1ccc(C(=O)C2=C(O)C(=O)N(c3ncc(Sc4ccc([N+](=O)[O-])cc4)s3)C2c2ccc(OC(F)(F)F)cc2)cc1 (stereo unspecified)
40 | 65 to 66 °C | CCCCCCCCCCCCC#CC(O)(CCCCC(=O)O)CCCCC(=O)O
41 | 67 to 69 °C | CC(C)(CCCCOCCCc1ccccc1)NCc1c(CO)ccc(O)c1CO
42 | 246 to 247 °C | COC(=O)c1cc(C(=O)NCC(=O)O)c2cc(Cc3ccc(F)cc3)cnc2c1O
43 | 159 to 162 °C | CC(=O)CCc1ccc2c(c1)Cc1cc([N+](=O)[O-])ccc1-2
44 | 64 to 68 °C | Cc1cc(NC(=O)CC(C)(C)C)c2c(c1)C(c1ccc(C(C)C)cc1)C(C)(C)O2 (stereo unspecified)

Row | melting point | Compound
45 | 145 to 146 °C | O=C(O)CCc1ccc(OCCN2CCCC2=O)cc1Oc1ncc(C(F)(F)F)cc1Cl
46 | 141 to 143 °C | CCc1nc2c(c(C)c(C)n3nnnc23)n1CCOCCN1CCCC1=O
47 | 103 to 105 °C | c1ccc(N2C(=NCCCn3ccnc3)c3cccc4cccc2c34)cc1
48 | 222 to 225 °C | COc1ccc(Nc2nc(-c3ccc(OC)c(OC)c3)cs2)nc1
49 | 277 to 279 °C | Nc1cccc(-n2c(=O)c3c(Cc4ccccc4)n[nH]c3c3cccnc32)c1
50 | 148 to 150 °C | O=C(OCC(O)c1ccccc1)c1ccc(-c2ccc(OCCCCCCO)cc2)cc1 (stereo unspecified)
51 | 260 °C | CC1SC(=O)NN=C1c1ccc2c(c1)C(=NN(C)c1ccccc1)C(=O)N2 (stereo unspecified)
52 | 228 to 230 °C | O=C1CCC(N2Cc3c(OCc4ccc(F)c(F)c4)cccc3C2=O)C(=O)N1 (stereo unspecified)
53 | 65 °C | ClCC1COC(Cc2ccc(Cl)cc2)(c2ccccc2)O1 (stereo unspecified)
54 | 202 to 205 °C | CCOCc1nc2c(N)nc3cc(OCc4ccccc4)ccc3c2n1CC(C)(C)NC(C)=O
55 | 140 to 141 °C | COc1cccc2c1C[C@@H](NC=O)CC2
56 | 105 to 109 °C | CC1(CC(=O)N2CCC([C@H]3c4ncc(Br)cc4CCc4cc(Cl)cc(Br)c43)CC2)C=CN(S(C)(=O)=O)C=C1
57 | 164 to 172 °C | CCC(=O)N1CCC(NC(=O)NC2CCCCCC2)CC1
58 | 254 to 259 °C | CNC(=O)c1cc(C(=O)O)c(Nc2ccc(I)cc2C)c(F)c1F
59 | 70 °C | CCOC(=O)C(C)Oc1ccc(Oc2nc3ccc(Cl)cc3cc2Cl)cc1 (stereo unspecified)
60 | 242 to 246 °C | Cc1cc(C)c(N2c3ccccc3S(=O)(=O)c3ccccc32)c(C)c1
61 | 157 to 158 °C | CSc1ccc(C(=O)Nc2cccnc2C(=O)Nc2ccc(Cl)cn2)c(OC2CCNCC2)c1
62 | 122 °C | CCN1CCCC1CNC(=O)c1cccc(N(C2CN(C(c3ccc(Cl)cc3)c3ccc(Cl)cc3)C2)S(C)(=O)=O)c1 (single isomer, unassigned; (+))
63 | 253 to 255 °C | COc1ncc(C=C2SC(=S)N(CC(=O)O)C2=O)cc1-c1cc2c(cc1C)C(C)(C)CCC2(C)C
64 | 235 to 237 °C | CC(=O)NCC(C)(C)c1ccc2nc(-c3c[nH]cn3)[nH]c2c1
65 | 250 to 251 °C | O=C(/C=C/c1ccc(F)cc1)N1CCN2C(=O)OC(c3ccccc3)(c3ccccc3)C2C1 (stereo unspecified)
66 | 68 °C | CCCCc1nc(SCCOC(C)=O)c(C(=O)OCC)[nH]1

Source: a melting point compilation (Tetko et al.; mined from patent text by program, amines drawn as free bases though some values may be those of a salt)
